Laboratory results: patent US20160113925A1, “METHODS OF TREATING CANCER WITH A COMBINATION OF GLUCOSE MODULATORS AND BCL-2 INHIBITORS” (EMORY UNIVERSITY, priority 2014, published 2016)
Counter-ions that a name gives are not always drawn.

Legend:
Format in all cases: cell-based
[1] = tested on: L363, KMS11, MM.1S and AMO1 cell lines; assay: Metabolic supplementation of glutamine deprived MM cell lines: reversal of sensitization to ABT-199; details: glutamine deprived L363, KMS11, MM.1S and AMO1 cell lines supplemented with metabolite
Source text: The metabolic specificity of glutamine deprivation-induced sensitization to ABT-199 […]. Glutamine deprived cells were supplemented with various metabolites generated by metabolism of glutamine and evaluated for their ability to reverse sensitization to ABT-199. Glutamine deprived MM cell lines were supplemented with galactose, dimethyl fumarate, dimethyl succinate, oxaloacetic acid, 2 methyl pyruvate, a mixture of non-essential amino acids or cell permeant dimethyl alpha ketoglutarate (DMK).

[2] = tested on: MM cell lines; assay: Sensitization of MM cell lines to ABT-199 (venetoclax) by ritonavir or DON; details: MM cell lines cultured with ritonavir (40 uM) or DON (0.1 mM); FIGS. 1 and 2
Source text: (§1) Ritonavir is an HIV […] that is also a reversible non-competitive inhibitor of glucose transport through GLUT4. […] Glutamine antagonist DON (6-Diazo-5-oxo-L-norleucine) effectively block first step of glutaminolysis pathway and thus restrict cells for using glutamine.

[3] = tested on: MM patient samples; assay: Sensitization of MM patient samples to ABT-199 (venetoclax) by ritonavir or DON; details: for efficacy of the combination with ABT-199 (venetoclax) in patient samples: highly responsive samples were from relapse refractory patients
Source text: as §1

[4] = tested on: MM lines; assay: Impact of glucose or glutamine withdrawal on sensitivity of MM lines to ABT-199 (venetoclax)
Protocol: Eight MM cell lines were assessed for induction of apoptosis upon culture in media deprived of glucose, glutamine or both nutrients. While all cells are growth inhibited the extent of apoptosis elicited was highly variable. […] Continued survival upon nutrient deprivation despite induction of BIM could be due to increased sequestration of BIM with the induced BCL-2. […] The BH3 mimetic ABT-199 (venetoclax) targets the BIM-BCL-2 interaction. The impact of either glucose or glutamine withdrawal on sensitivity to ABT-199 (venetoclax) was evaluated.

Compound: COC(=O)/C=C/C(=O)OC [dimethyl fumarate]
- reversal of glutamine deprivation-induced sensitization to ABT-199 [1]: only the addition of DMK reversed sensitization

Compound: COC(=O)CCC(=O)OC [dimethyl succinate]
- reversal of glutamine deprivation-induced sensitization to ABT-199 [1]: only the addition of DMK reversed sensitization

Compound: COC(=O)CCC(=O)C(=O)OC [DMK, dimethyl alpha ketoglutarate]
- reversal of glutamine deprivation-induced sensitization to ABT-199 [1]: reversed sensitization

Compound: [N-]=[N+]=CC(=O)CC[C@H](N)C(=O)O [DON, 6-Diazo-5-oxo-L-norleucine]
- sensitivity to ABT-199 (venetoclax) in MM cell lines [2]: increased sensitivity
- sensitivity to ABT-199 (venetoclax) in patient samples [3]: increased sensitivity
- efficacy of the combination with ABT-199 (venetoclax) in patient samples [3]: highly efficacious

Compound: COC(=O)C(C)=O [2 methyl pyruvate]
- reversal of glutamine deprivation-induced sensitization to ABT-199 [1]: only the addition of DMK reversed sensitization

Compound: O=C[C@H](O)[C@@H](O)[C@@H](O)[C@H](O)CO [galactose]
- reversal of glutamine deprivation-induced sensitization to ABT-199 [1]: only the addition of DMK reversed sensitization

Compound: venetoclax [ABT-199 (venetoclax)]
- sensitization of MM lines to ABT-199 (venetoclax) on nutrient withdrawal [4]: sensitize all MM lines

Compound: O=C(O)CC(=O)C(=O)O [oxaloacetic acid]
- reversal of glutamine deprivation-induced sensitization to ABT-199 [1]: only the addition of DMK reversed sensitization

Compound: CC(C)c1nc(CN(C)C(=O)N[C@H](C(=O)N[C@@H](Cc2ccccc2)C[C@H](O)[C@H](Cc2ccccc2)NC(=O)OCc2cncs2)C(C)C)cs1 [Ritonavir, 1,3-thiazol-5-ylmethyl N-[(2S,3S,5S)-3-hydroxy-5-[[(2S)-3-methyl-2-[[methyl-[(2-propan-2-yl-1,3-thiazol-4-yl)methyl]carbamoyl]amino]butanoyl]amino]-1,6-diphenylhexan-2-yl]carbamate]
- sensitivity to ABT-199 (venetoclax) in MM cell lines [2]: significantly increased sensitivity
- sensitivity to ABT-199 (venetoclax) in patient samples [3]: significantly increased sensitivity
- efficacy of the combination with ABT-199 (venetoclax) in patient samples [3]: highly efficacious
